Test results: article PMC10747975, “Synthesis, Antimalarial, Antileishmanial, and Cytotoxicity Activities and Preliminary In Silico ADMET Studies of 2-(7-Chloroquinolin-4-ylamino)ethyl Benzoate Derivatives” (Pharmaceuticals, 2023)
“And” between values parts separate entries of the source, which are not always exact repeats. Equal entries are not always repeated. “Also recorded” adds a separate entry of the source. Where two headings read alike, the source gives them in different places.

Columns and labels:
β-hematin formation = assay: Inhibition of β-hematin formation; assay type: biochemical; conditions: n = 3, read-out: IC50: Half maximal inhibitory concentration (βHF)
Experimental: The β-hematin (β-H) formation assay was performed as described previously. In 96-well microplates, hemin chloride solution (50 μL, 4 mM) was dissolved in dimethyl sulfoxide (DMSO) (5 mg mL^−1). We dissolved the compounds in DMSO and added different concentrations (100–5 mM) to the test wells (50 μL). As controls, 50 μL of water and 50 μL of DMSO were used. Experiments were conducted in triplicate. In order to generate β-H, acetate buffer (100 μL, 0.2 M, pH 4.4) was used. After 48 h at 37 °C, the plates were centrifuged (4000 RPM for 15 min, IEC-CENTRA, MP4R) (International Equipment Company, MA, USA). After discarding the supernatants, the pellet was washed twice with DMSO (200 μL) and dissolved in NaOH (200 μL, 0.2 N). […] The outcomes are expressed as percentages of inhibition of β-H formation.

[1] = test system: Leishmania mexicana promastigotes; assay: L. mexicana promastigote growth inhibition; assay type: cell-based; conditions: growth/viability, Bel 21 strain
Experimental: The growth of L. mexicana was carried out as previously reported. L. mexicana (Bel 21 strain) promastigotes were cultured in liver infusion-tryptose (LIT) medium supplemented with 10% foetal bovine serum using continuous agitation at 29 °C, as reported previously. A growth curve was performed to evaluate the susceptibility of parasites to the different compounds at different concentrations. Parasites were counted daily using a Neubauer chamber. […] The final concentration of sterile DMSO in the parasite culture was 0.1%, not affecting the viability. […] FCCP (2 µM) was used as a positive control.

[2] = test system: acidocalcisomes of Leishmania mexicana; assay: Acidocalcisome function (acridine orange accumulation); assay type: cell-based; conditions: results not shown
Description: Considering this issue, we investigate another possible action of these compounds in these parasites. The acidocalcisomes are another relevant organelle characteristic of these trypanosomatids directly involved in bioenergetics and intracellular Ca^2+ regulation. These are acidic vacuoles rich in calcium and phosphates, engaged in the production and storage of pyrophosphates, and alternative energetic currency in addition to ATP, well known in trypanosomatids. For this reason, we also tested the possible effect of the compounds 4b, 4c, and 4e on acidocalcisomes, using acridine orange accumulation as a well-recognized method. This compound is released to the medium after parasite alkalization, denoting the loss of this organelle function. […] In this context, it is interesting to mention that in trypanosomatids, the disruption of intracellular Ca^2+ homeostasis drives parasite death, thus proposing that alteration of this function could be a rational therapeutic target.

Plasmodium berghei ANKA = assay: Four-day suppressive test in P. berghei-infected mice; assay type: in vivo; conditions: for Survival: number of mice that survived until Day 30 post-infection/total number of mice in the group / %P: percent parasitaemia (± SEM): 25 mg/kg ip; for Sd: survival days (± SEM): P. berghei-infected BALB/c mice, 25 mg/kg ip once daily for four days; for Sd: survival days (± SEM) / %P: percent parasitaemia (± SEM): n = 6; for %P: percent parasitaemia (± SEM): fourth day post-infection
Experimental: The compounds 4c and 4e were evaluated in mice infected with P. berghei ANKA, a strain of murine malaria susceptible to CQ(DPh). The compounds 4c and 4e were assessed on the fourth day post-infection by evaluating their ability to increase mouse survival and reduce parasitaemia in vivo compared to untreated controls. The compounds 4c, 4e (25 mg/kg), or CQ (25 mg/kg) were administered intraperitoneally (ip) once daily in mice following previously reported protocols. The Institute of Immunology Bioethical Committee approved the study (AS 161019). We followed the guidelines for Laboratory Animal Research of the National Research Council (ILAR).
For the experiments, male BALB/c mice, 18–22 g, were fed a commercial pellet diet under controlled conditions approved by the Institute of Immunology’s Ethics Committee. The animals were infected with the rodent malaria ANKA strain of Plasmodium berghei; 1 × 10^6 infected erythrocytes diluted in phosphate-buffered saline (PBS; 10 mM, pH 7.4, 0.1 mL) were injected […] into mice. Microscopic examination of Giemsa-stained smears was used to monitor parasitaemia.
Plasmodium berghei-infected red blood cells were injected into the caudal vein of BALB/c mice (18–23 g) (n = 6). Within two hours of infection, the active compounds from the in vitro test began to be administered (inhibition of β-H formation). Following dissolution in DMSO (0.1 M), the compounds were diluted with 2% saline-Tween 20 solution. The compounds (dose 25 mg kg^−1) were administered ip for four days. Giemsa-stained smears were examined on the fourth day to determine the parasite load. As a positive control, CQ (25 mg kg^−1) in DMSO (0.1 M) diluted with 2% saline-Tween 20 solution was used. A control group of mice infected with P. berghei incubated with saline solution was used to determine survival times. The results are expressed as a percentage of parasitaemia, and the survival curve was constructed based on the number of days of survival after treatment with the compound over that of mice infected without treatment.

[3] = test system: mitochondrial electrochemical membrane potential of Leishmania mexicana promastigotes; assay: Mitochondrial membrane potential of L. mexicana (rhodamine 123); assay type: cell-based; conditions: compounds 10 μM; b32 compares 4b, 4e with 4c
Experimental: The effect of different compounds on the mitochondrial membrane potential of L. mexicana promastigotes was evaluated using rhodamine 123, a fluorescent dye distributed inside mitochondria according to the electrochemical membrane potential, as reported previously. Briefly, 10^8 parasites were obtained by centrifugation at 600× g for 2 min and washed in phosphate-buffered saline solution (PBS) plus 1% glucose. The pellet was resuspended in the same buffer but in the presence of 20 µM rhodamine 123 for 45 min at 29 °C in the dark with mild agitation. Then, parasites were washed twice, resuspended in the same buffer, and transferred into a stirred cuvette. Measurements (excitation wavelength [λex], 488 nm; emission wavelength [λem], 530 nm) were made in a Hitachi 7000 spectrofluorometer at 29 °C (Hitachi High-Tech Corporation, Tokyo, Japan). FCCP (2 µM) was used as a positive control.

[4] = In vitro toxicity on mouse red blood cells (haemolysis); assay type: cell-based; conditions: mouse RBCs, 37 °C
Experimental: To evaluate the in vitro toxicological effects of the compounds, we measured the haemoglobin released into the supernatant fraction of lysed red blood cells (RBCs). […] To obtain 100% RBCs, mouse blood was spun down at 800 g for 10 min and washed thrice with saline solution. […] RBCs were lysed in 1% saponin solution and were used as a positive control and a PBS solution as a negative control. The percentage of haemolysis was calculated using the formula: % Haemolysis = [(AT − AN)/(AP − AN)] × 100, where AT = mean absorbance of the test compound; AN = mean absorbance of the negative control; AP = mean absorbance of the positive control.

[5] = test system: Leishmania mexicana promastigotes; parameters: method as in PMID 27458218; conditions: reference compound; cited from earlier work
[6] = 2% suspension of mouse red blood cells

COc1ccccc1C(=O)OCCNc1ccnc2cc(Cl)ccc12 [4a, 2-(7-Chloroquinolin-4-ylamino)ethyl-2-methoxybenzoate]
IC50 (β-hematin formation): 4.16 ± 0.61 µM

COc1cccc(C(=O)OCCNc2ccnc3cc(Cl)ccc23)c1OC [4c, 2-(7-Chloroquinolin-4-ylamino)ethyl-2,3-dimethoxybenzoate]
IC50 (β-hematin formation): 2.1 ± 0.48 µM | IC50 ([1]; Leishmania mexicana): < 10 µM | IC50 [1]: 8.46 ± 1.86 µM | Effect on acidocalcisome functionality [2]: none of these compounds showed any effect | Survival: number of mice that survived until Day 30 post-infection/total number of mice in the group (Plasmodium berghei ANKA): 0/6 | Sd: survival days (± SEM) (Plasmodium berghei ANKA; 25 mg/kg): 16.7 ± 2.16 days and 16.71 ± 2.16 days | %P: percent parasitaemia (± SEM) (Plasmodium berghei ANKA): 9.86 ± 1.55 % | Effect on mitochondrial electrochemical membrane potential (rhodamine 123 fluorescence release) [3]: rapid increase in the fluorescence; also recorded: lower | hemolysis at 45 min, 1 mM [4, 6]: 4.73 ± 0.12%

O=C(OCCNc1ccnc2cc(Cl)ccc12)c1cccc(Cl)c1 [4h, 2-(7-Chloroquinolin-4-ylamino)ethyl-3-chlorobenzoate]
IC50 (β-hematin formation): 6.85 ± 0.94 µM

COc1ccc(OC)c(C(=O)OCCNc2ccnc3cc(Cl)ccc23)c1 [4e, 2-(7-Chloroquinolin-4-ylamino)ethyl-2,5-dimethoxybenzoate]
IC50 (β-hematin formation): 1.81 ± 0.83 µM | IC50 ([1]; Leishmania mexicana): < 10 µM | IC50 [1]: 5.67 ± 2.15 µM | Effect on acidocalcisome functionality [2]: none of these compounds showed any effect | Survival: number of mice that survived until Day 30 post-infection/total number of mice in the group (Plasmodium berghei ANKA): 0/6 | Sd: survival days (± SEM) (Plasmodium berghei ANKA; 25 mg/kg): 14.4 ± 1.20 days and 14.43 ± 1.20 days | %P: percent parasitaemia (± SEM) (Plasmodium berghei ANKA): 12.05 ± 2.36 % | Effect on mitochondrial electrochemical membrane potential (rhodamine 123 fluorescence release) [3]: rapid increase in the fluorescence; also recorded: significantly higher | hemolysis at 45 min, 1 mM [4, 6]: 4.17 ± 0.21%

O=C(OCCNc1ccnc2cc(Cl)ccc12)c1ccccc1F [4i, 2-(7-Chloroquinolin-4-ylamino)ethyl-2-fluorobenzoate]
IC50 (β-hematin formation): 4.01 ± 0.09 µM

CC(C)(C)c1ccc(C(=O)OCCNc2ccnc3cc(Cl)ccc23)cc1 [4l, 2-(7-Chloroquinolin-4-ylamino)ethyl-4-tert-butylbenzoate]
IC50 (β-hematin formation): 3.57 ± 0.22 µM

COc1cc(C(=O)OCCNc2ccnc3cc(Cl)ccc23)cc(OC)c1OC [4g, 2-(7-Chloroquinolin-4-ylamino)ethyl-3,4,5-trimethoxybenzoate]
IC50 (β-hematin formation): 2.98 ± 0.17 µM

CC(C)=CCC/C(C)=C/CNCCNC1C2CC3CC(C2)CC1C3 (stereo not drawn) [SQ109]
IC50 [5]: 0.53 ± 0.06 µM

O=C(OCCNc1ccnc2cc(Cl)ccc12)c1ccc(C(F)(F)F)cc1 [4m, 2-(7-Chloroquinolin-4-ylamino)ethyl-4-(trifluoromethyl)benzoate]
IC50 (β-hematin formation): 3.24 ± 0.15 µM

CCN(CC)CCCC(C)Nc1ccnc2cc(Cl)ccc12 (stereo not drawn) [CQ, chloroquine, reference compound]
Survival: number of mice that survived until Day 30 post-infection/total number of mice in the group (Plasmodium berghei ANKA): 6/6 | hemolysis at 45 min, 1 mM [4]: 2.07 ± 0.17%

CCN(CC)CCCC(C)Nc1ccnc2cc(Cl)ccc12 (stereo not drawn) [CQ(DPh), chloroquine bisphosphate, reference compound]
Sd: survival days (± SEM) (Plasmodium berghei ANKA): 30 days | %P: percent parasitaemia (± SEM) (Plasmodium berghei ANKA): 0.28 ± 0.15%

COc1cc(OC)c(C(=O)OCCNc2ccnc3cc(Cl)ccc23)cc1OC [4f, 2-(7-Chloroquinolin-4-ylamino)ethyl-2,4,5-trimethoxybenzoate]
IC50 (β-hematin formation): 3.29 ± 0.23 µM

Cc1cc(C)cc(C(=O)OCCNc2ccnc3cc(Cl)ccc23)c1 [4j, 2-(7-Chloroquinolin-4-ylamino)ethyl-3,5-dimethylbenzoate]
IC50 (β-hematin formation): 3.16 ± 0.38 µM

Cc1ccc([N+](=O)[O-])c(C(=O)OCCNc2ccnc3cc(Cl)ccc23)c1 [4k, 2-(7-Chloroquinolin-4-ylamino)ethyl-5-methyl-2-nitrobenzoate]
IC50 (β-hematin formation): 4.27 ± 0.67 µM

COc1ccc(C(=O)OCCNc2ccnc3cc(Cl)ccc23)cc1 [4b, 2-(7-Chloroquinolin-4-ylamino)ethyl-4-methoxybenzoate]
IC50 (β-hematin formation): 3.09 ± 0.27 µM | IC50 ([1]; Leishmania mexicana): < 10 µM | IC50 [1]: 8.09 ± 1.47 µM | Effect on acidocalcisome functionality [2]: none of these compounds showed any effect | Effect on mitochondrial electrochemical membrane potential (rhodamine 123 fluorescence release) [3]: rapid increase in the fluorescence; also recorded: significantly higher

OCCNc1ccnc2cc(Cl)ccc12 [compound 2, 2-(7-Chloroquinolin-4-ylamino)ethanol]
IC50 (β-hematin formation): 5.06 ± 0.31 µM

COc1ccc(C(=O)OCCNc2ccnc3cc(Cl)ccc23)c(OC)c1 [4d, 2-(7-Chloroquinolin-4-ylamino)ethyl-2,4-dimethoxybenzoate]
IC50 (β-hematin formation): 8.59 ± 0.01 µM
